Results on 23 compounds are retold here after ChEMBL document CHEMBL4725294, “Centrally Active Multitarget Anti-Alzheimer Agents Derived from the Antioxidant Lead CR-6” (J Med Chem, 2020).

Calls of active or inactive are those of the source. No cut-off for these calls is given here.

By inhibition is commonly meant the percentage by which the read-out fell short of the control. As a reminder, the IC50 is the concentration needed to halve the response being measured. What is called Papp is a coefficient for how fast a substance crosses the barrier. Low readings indicate slow passage, high ones fast passage. In general, Ki refers to a dissociation constant, usually derived from enzyme kinetics or from competition with a known ligand. The Kd is the concentration at which binding is half-saturated. A low value points to higher affinity.

In data set [1] the target is T1, Beta-secretase 1 (Homo sapiens, UniProt P56817). The experiment in a line: Inhibition human BACE1 expressed in baculovirus expression system at 5 uM using Panvera peptide as substrate measured after 60 mins by fluorescence assay relative to control. To be noted: 1 h; for inhibition (INH): 5 µM.
For data set [2], the target named is T2, Acetylcholinesterase (Homo sapiens, UniProt P22303).
Description: (§1) Inhibition of recombinant human AChE expressed in HEK293 cells using acetylthiocholine iodide as substrate preincubated for 15 mins followed by substrate addition by Ellman's method
The target in data set [3] is T3, Cholinesterase (Homo sapiens, UniProt P06276).
Description: (§2) Inhibition of recombinant human BChE using butyrylthiocholine iodide as substrate preincubated for 15 mins followed by substrate addition by Ellman's method
Data set [4] is described as follows: in vitro. To be noted: PAMPA.
Description: Permeability of compound in PBS/EtOH buffer (7:3) PAMPA-BBB assay
Data set [5] addresses T1, Beta-secretase 1. The experiment in a line: Inhibition human BACE1 expressed in baculovirus expression system using Panvera peptide as substrate measured after 60 mins by fluorescence assay.
Data set [6] is described as follows: Drug level in human liver microsomes treated with N-{8-[(6-Chloro-1,2,3,4-tetrahydroacridin-9-yl)amino]octyl}-2-(6-hydroxy-7-methoxy-2-methylchroman-2-yl)acetamide at 5 uM measured up to 60 mins by UPLC-MS/MS analysis. Type of data set: ADME, Microsome. The note with it: 1 h. A general note: Liver microsomes are vesicles of endoplasmic reticulum, rich in cytochrome P450 enzymes.

A short description of data set [7]: Drug level in mouse liver microsomes treated with N-{8-[(6-Chloro-1,2,3,4-tetrahydroacridin-9-yl)amino]octyl}-2-(6-hydroxy-7-methoxy-2-methylchroman-2-yl)acetamide at 5 uM measured up to 60 mins by UPLC-MS/MS analysis. The data set is classed as ADME, Microsome. To be noted: 1 h.
Data set [8] can be described thus: Drug level in rat liver microsomes treated with N-{8-[(6-Chloro-1,2,3,4-tetrahydroacridin-9-yl)amino]octyl}-2-(6-hydroxy-7-methoxy-2-methylchroman-2-yl)acetamide at 5 uM measured up to 60 mins by UPLC-MS/MS analysis. Type of data set: ADME, Microsome. The note with it: 1 h.
In data set [9] the target is T3, Cholinesterase. Description: Potency index, ratio of tacrine IC50 to test compound IC50 for recombinant human BChE.
Data set [10] has as its target T2, Acetylcholinesterase. The experiment in a line: Mixed inhibition of recombinant human AChE expressed in HEK293 cells assessed as dissociation constant for enzyme-inhibitor complex using varying levels of acetylthiocholine iodide as substrate preincubated for 15 mins followed by substrate addition by Line-weaver Burk plot analysis.
Data set [11] addresses T2, Acetylcholinesterase. The experiment in a line: Mixed inhibition of recombinant human AChE expressed in HEK293 cells assessed as dissociation constant for enzyme-substrate-inhibitor complex using varying levels of acetylthiocholine iodide as substrate preincubated for 15 mins followed by substrate addition by Line-weaver Burk plot analysis.
Data set [12] addresses Acetylcholinesterase (Electrophorus electricus, UniProt O42275). Description: Displacement of propidium iodide from PAS region of electric eel AChE by fluorescence assay.
The target of data set [13] is T2, Acetylcholinesterase. To be noted: hek293.
Description: as §1
Data set [14] concerns the target T3, Cholinesterase. This is another data set of the same source.
Description: as §2
The target in data set [15] is T2, Acetylcholinesterase. The experiment in a line: Potency index, ratio of tacrine IC50 to test compound IC50 for recombinant human AChE expressed in HEK293 cells. The data set is classed as cell-based.
The target of data set [16] is T2, Acetylcholinesterase. The experiment in a line: Inhibition of recombinant human AChE expressed in HEK293 cells at 100 uM using acetylthiocholine iodide as substrate preincubated for 15 mins followed by substrate addition by Ellman's method. On the technique in general: DTNB colorimetry detects thiols as they appear.
Data set [17] has as its target T3, Cholinesterase. Description: Inhibition of recombinant human BChE at 100 uM using butyrylthiocholine iodide as substrate preincubated for 15 mins followed by substrate addition by Ellman's method.

T3 sequence (P06276 whole entry): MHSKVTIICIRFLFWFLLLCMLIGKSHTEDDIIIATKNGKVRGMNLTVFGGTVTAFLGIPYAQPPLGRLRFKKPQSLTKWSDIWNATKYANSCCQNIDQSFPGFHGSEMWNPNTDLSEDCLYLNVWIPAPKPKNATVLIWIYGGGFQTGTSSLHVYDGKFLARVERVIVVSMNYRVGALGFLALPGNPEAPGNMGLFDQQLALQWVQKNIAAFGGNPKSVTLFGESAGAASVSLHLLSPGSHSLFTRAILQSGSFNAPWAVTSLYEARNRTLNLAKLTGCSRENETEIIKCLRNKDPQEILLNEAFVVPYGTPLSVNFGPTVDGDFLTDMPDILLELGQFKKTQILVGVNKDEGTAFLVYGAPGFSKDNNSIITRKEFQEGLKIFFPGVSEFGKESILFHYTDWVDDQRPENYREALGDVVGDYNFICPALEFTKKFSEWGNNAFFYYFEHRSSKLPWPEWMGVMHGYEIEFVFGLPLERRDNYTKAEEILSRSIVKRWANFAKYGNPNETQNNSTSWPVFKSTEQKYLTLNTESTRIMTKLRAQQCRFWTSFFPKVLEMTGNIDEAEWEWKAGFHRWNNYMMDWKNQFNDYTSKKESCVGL
T1 sequence (P56817 whole entry): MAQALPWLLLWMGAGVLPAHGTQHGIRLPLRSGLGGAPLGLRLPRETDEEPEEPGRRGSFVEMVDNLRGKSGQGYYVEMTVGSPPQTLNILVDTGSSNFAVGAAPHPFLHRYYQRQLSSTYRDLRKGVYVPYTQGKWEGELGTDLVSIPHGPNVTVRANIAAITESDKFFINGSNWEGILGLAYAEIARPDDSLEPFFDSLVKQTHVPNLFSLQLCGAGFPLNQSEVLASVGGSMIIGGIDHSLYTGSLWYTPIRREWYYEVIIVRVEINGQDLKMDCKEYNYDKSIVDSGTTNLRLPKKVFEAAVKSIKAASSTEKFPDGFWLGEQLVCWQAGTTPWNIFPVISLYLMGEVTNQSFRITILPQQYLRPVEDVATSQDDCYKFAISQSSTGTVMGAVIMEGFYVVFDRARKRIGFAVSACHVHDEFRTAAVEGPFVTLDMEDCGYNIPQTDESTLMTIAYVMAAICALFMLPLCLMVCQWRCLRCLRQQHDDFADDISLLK
T2 sequence (P22303 whole entry): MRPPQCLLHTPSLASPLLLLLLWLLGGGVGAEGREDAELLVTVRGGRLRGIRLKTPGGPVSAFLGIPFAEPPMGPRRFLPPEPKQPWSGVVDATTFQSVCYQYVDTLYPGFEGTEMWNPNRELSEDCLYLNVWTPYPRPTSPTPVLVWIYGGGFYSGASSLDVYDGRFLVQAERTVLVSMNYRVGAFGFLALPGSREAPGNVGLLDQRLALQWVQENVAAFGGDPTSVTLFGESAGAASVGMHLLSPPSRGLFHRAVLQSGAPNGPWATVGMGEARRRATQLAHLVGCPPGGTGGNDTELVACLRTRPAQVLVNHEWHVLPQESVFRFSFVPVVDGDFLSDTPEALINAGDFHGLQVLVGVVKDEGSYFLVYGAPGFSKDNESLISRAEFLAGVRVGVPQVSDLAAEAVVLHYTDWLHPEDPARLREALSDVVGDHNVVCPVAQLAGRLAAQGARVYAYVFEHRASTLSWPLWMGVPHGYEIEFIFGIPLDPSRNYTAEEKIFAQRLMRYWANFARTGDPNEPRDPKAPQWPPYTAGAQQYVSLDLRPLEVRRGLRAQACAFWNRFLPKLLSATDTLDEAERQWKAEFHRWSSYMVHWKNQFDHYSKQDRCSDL
Acetylcholinesterase (Electrophorus electricus, UniProt O42275), sequence (O42275 whole entry): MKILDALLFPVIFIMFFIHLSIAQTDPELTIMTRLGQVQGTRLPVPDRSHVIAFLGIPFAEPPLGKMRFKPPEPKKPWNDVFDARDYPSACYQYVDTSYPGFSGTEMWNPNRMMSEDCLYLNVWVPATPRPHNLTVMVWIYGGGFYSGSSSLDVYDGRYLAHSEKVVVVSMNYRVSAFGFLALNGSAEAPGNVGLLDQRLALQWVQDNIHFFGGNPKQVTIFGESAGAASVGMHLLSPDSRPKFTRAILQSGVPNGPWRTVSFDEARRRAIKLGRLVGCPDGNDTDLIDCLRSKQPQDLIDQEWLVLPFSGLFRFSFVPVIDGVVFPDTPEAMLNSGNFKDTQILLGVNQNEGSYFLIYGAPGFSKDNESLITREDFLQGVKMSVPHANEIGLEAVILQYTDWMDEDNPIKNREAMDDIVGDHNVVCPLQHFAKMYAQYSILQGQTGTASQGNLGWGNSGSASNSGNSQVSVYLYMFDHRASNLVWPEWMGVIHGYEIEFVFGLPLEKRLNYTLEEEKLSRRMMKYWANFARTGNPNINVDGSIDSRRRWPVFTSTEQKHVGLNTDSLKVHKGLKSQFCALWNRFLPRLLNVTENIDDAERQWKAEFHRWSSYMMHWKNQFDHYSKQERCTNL

`COc1cc2c(cc1O)CCC(C)(CCNCCOCCOCCNc1c3c(nc4cc(Cl)ccc14)CCCC3)O2` (configuration not stated): the inhibition at 5 µM in data set [1] amounted to 19.9%. In addition, the results for the IC50 in data set [2] and in [3] were 8.35 nM and 180 nM, respectively. In addition, the Papp in data set [4] is 9.7 ×10⁻⁶ cm/s.
On to `COc1cc2c(cc1O)CCC(C)(CC(=O)NCCCCCCCNc1c3c(nc4cc(Cl)ccc14)CCCC3)O2` (configuration not stated), for which the figures for the IC50 result in data set [5], in [2] and in [3] were “Not Active”, 5.43 nM and 79.1 nM, respectively. Besides, the “inhibition (INH)” value in data set [1] is recorded as “Not Active”. The compound also showed a Papp in [4] of 9.7 ×10⁻⁶ cm/s.
On to `COc1cc2c(cc1OCc1ccccc1)CCC(C)(CC(=O)NCCCCCCCNc1c3c(nc4cc(Cl)ccc14)CCCC3)O2` (configuration not stated), for which the half-maximal inhibitory concentration (IC50) came out at 12500 nM in [5] (read-out: IC50), 6.99 nM in [2] and 51 nM in [3]. The compound also gave a Papp in data set [4] of 11.5 ×10⁻⁶ cm/s.
As for `COc1cc2c(cc1O)CCC(C)(CCC(=O)NCCCCCCCNc1c3c(nc4cc(Cl)ccc14)CCCC3)O2` (configuration not stated), in data set [1], the inhibition at 5 µM amounted to 14%. The IC50 came to 7.94 nM in data set [2] and 187 nM in data set [3]. The compound also showed a Papp in [4] of 8.3 ×10⁻⁶ cm/s.
Consider `COc1cc2c(cc1OCc1ccccc1)CCC(C)(CC(=O)NCCCCCCNc1c3c(nc4cc(Cl)ccc14)CCCC3)O2` (configuration not stated), for which the IC50 in data set [5] (read-out: IC50) is 18000 nM; in [2], 11 nM; in data set [3] it was 201 nM. The compound also registered a Papp in data set [4] of 10.7 ×10⁻⁶ cm/s.
As to `COC1=CC(=O)C2(CCC(C)(CC(=O)NCCCCCCCCNc3c4c(nc5cc(Cl)ccc35)CCCC4)O2)CC1=O` (configuration not stated), the Drug metabolism result in data set [6], in data set [7] and in [8] was “Metabolite_Detected” throughout.
For `COc1cc(O)c(CCC(C)(O)CC(=O)NCCCCCCCCNc2c3c(nc4cc(Cl)ccc24)CCCC3)cc1O` (configuration not stated), the Drug metabolism entry in data set [6], in data set [7] and in data set [8] was “Metabolite_Detected” throughout.
Turning to `COc1cc2c(cc1O)CCC(C)(CCNCCCCCCCCCNc1c3c(nc4cc(Cl)ccc14)CCCC3)O2` (configuration not stated), the Ratio IC50 in data set [9] amounted to 2. In data set [1], this compound registered an inhibition at 5 µM of 28.1%. Besides, the IC50 in [2] came to 0.27 nM; in data set [3] it was 18.3 nM. In data set [4], the Papp amounted to 10.1 ×10⁻⁶ cm/s.
Take `COc1cc2c(cc1OCc1ccccc1)CCC(C)(CC(=O)NCCCCCCCCCNc1c3c(nc4cc(Cl)ccc14)CCCC3)O2` (configuration not stated): the results for the IC50 in [5] (read-out: IC50), in [2] and in [3] were 7190 nM, 7.89 nM and 30.6 nM, respectively. Also, in data set [4], the Papp turned out to be 10.4 ×10⁻⁶ cm/s.
For `COc1cc2c(cc1O)CCC(C)(CCNCCCCCCCCNc1c3c(nc4cc(Cl)ccc14)CCCC3)O2` (configuration not stated), the Ratio IC50 in [9] worked out at 2. Moreover, the Ki in data set [10] worked out at 0.132 nM; in [11], 0.258 nM. For the same compound, the Kd in data set [12] was found to be 2030 nM. The compound also showed an inhibition at 5 µM in data set [1] of 24.8%. The results for the IC50 in [2] and in data set [3] were 0.12 nM and 13.4 nM, respectively. This compound registered a Papp in data set [4] of 12.5 ×10⁻⁶ cm/s.
Turning to `COc1cc2c(cc1O)CCC(C)(CC(=O)O)O2` (configuration not stated), the IC50 result in data set [13] and in data set [14] was “Not Active” each time. The Papp in data set [4] came out at 0.4 ×10⁻⁶ cm/s.
Regarding `COc1cc2c(cc1O)CCC(C)(CCNCCCCCCCNc1c3c(nc4cc(Cl)ccc14)CCCC3)O2` (configuration not stated), the Ratio IC50 in [9] came to 2. Also, the IC50 entry in [5] is “Not Active”; in data set [2], 0.44 nM; in data set [3], 17.4 nM. Besides, in [1], the “inhibition (INH)” value is “Not Active”. For the same compound, the Papp in data set [4] is 10.3 ×10⁻⁶ cm/s.
Consider `COc1cc2c(cc1O)CCC(C)(CC(=O)NCCOCCOCCNc1c3c(nc4cc(Cl)ccc14)CCCC3)O2` (configuration not stated), for which the IC50 result in [5] was “Not Active”; in data set [2] it was 47.9 nM; in data set [3] it was 1840 nM. For the same compound, the “inhibition (INH)” value in data set [1] is “Not Active”. Also, the Papp in data set [4] came out at 7 ×10⁻⁶ cm/s.
Consider `COc1cc2c(cc1O)CCC(C)(CC(=O)NCCCCCCCCCNc1c3c(nc4cc(Cl)ccc14)CCCC3)O2` (configuration not stated), for which the IC50 result in data set [5] was “Not Active”; in [2], 2.05 nM; in [3], 168 nM. The “inhibition (INH)” value in [1] is “Not Active”. Further, the Papp in [4] was 8.2 ×10⁻⁶ cm/s.
On to `COC1=CC(=O)C(CCC(C)(O)CC(=O)NCCCCCCCCNc2c3c(nc4cc(Cl)ccc24)CCCC3)=CC1=O` (configuration not stated), for which the Drug metabolism result in data set [6], in data set [7] and in data set [8] was “Metabolite_Detected” throughout.
Take `COc1cc2c(cc1O)CCC(C)(CC(=O)NCCCCCCCCCNc1c3c(nc4ccccc14)CCCC3)O2` (configuration not stated): the Ratio IC50 in data set [15] is < 5; in data set [9] it was 7. For the same compound, testing at 5 µM in [1] gave an inhibition of 6.75%. The IC50 in data set [2] amounted to 57.8 nM; in data set [3], 5.36 nM. This compound also returned a Papp in [4] of 8.9 ×10⁻⁶ cm/s.
`COc1cc2c(cc1O)CCC(C)(CC(=O)NCCCCCCCCNc1c3c(nc4ccccc14)CCCC3)O2` (configuration not stated): the Ratio IC50 in data set [15] was < 5; in [9], 7. The IC50 result in [5] was “Not Active”; in data set [2], 69.8 nM; in data set [3], 5.33 nM. Besides, in [1], the “inhibition (INH)” value is on record as “Not Active”. The Papp in data set [4] is 7.3 ×10⁻⁶ cm/s.
For `COc1cc2c(cc1O)CCC(C)(CC(=O)NCCCCCCCNc1c3c(nc4ccccc14)CCCC3)O2` (configuration not stated), the Ratio IC50 in data set [15] was < 5; in data set [9], 7. Besides, the IC50 result in [5] was “Not Active”; in data set [2], 111 nM; in data set [3] it was 4.28 nM. For the same compound, the “inhibition (INH)” value in data set [1] is “Not Active”. In data set [4], this compound registered a Papp of 6.6 ×10⁻⁶ cm/s.
On to `COc1cc2c(cc1O)CCC(C)(CC(=O)NCCCCCCNc1c3c(nc4ccccc14)CCCC3)O2` (configuration not stated), for which the Ratio IC50 is < 5 in data set [15] and 7 in data set [9]. Moreover, the IC50 result was “Not Active” in [5], 275 nM in data set [2] and 4.99 nM in data set [3]. Moreover, the “inhibition (INH)” value in [1] was “Not Active”. The same compound gave a Papp in data set [4] of 4.3 ×10⁻⁶ cm/s.
Regarding `COc1cc2c(cc1O)CCC(C)(CCC(=O)NCCCCCCCCNc1c3c(nc4cc(Cl)ccc14)CCCC3)O2` (configuration not stated), the IC50 entry in data set [5] is “Not Active”; in data set [2], 6.23 nM; in data set [3], 148 nM. Moreover, the “inhibition (INH)” value in data set [1] is recorded as “Not Active”. Further, the Papp in [4] came to 8.7 ×10⁻⁶ cm/s.
As to `Nc1c2c(nc3cc(Cl)ccc13)CCCC2`, the Drug metabolism result in data set [6], in [7] and in data set [8] was “Metabolite_Detected” each time. The Papp in data set [4] came out at 26.1 ×10⁻⁶ cm/s.
As to `COc1cc2c(cc1O)CCC(C)(CCN)O2` (configuration not stated), the inhibition result in data set [16] and in [17] was “inactive” in each case. Moreover, the IC50 in [2] amounted to 101000 nM; in [3], 23200 nM. The compound further returned a Papp in data set [4] of 1 ×10⁻⁶ cm/s.
With `COc1cc2c(cc1O)CCC(C)(CCC(=O)NCCCCCCNc1c3c(nc4cc(Cl)ccc14)CCCC3)O2` (configuration not stated), the 50% inhibitory concentration (IC50) result was “Not Active” in data set [5], 3.8 nM in data set [2] and 102 nM in [3]. For the same compound, the “inhibition (INH)” value in [1] is given as “Not Active”. The same compound returned a Papp in [4] of 7.8 ×10⁻⁶ cm/s.
